Reference: patent EP4691462A1, “SILYBIN-CONTAINING COMPOSITION” (Tianjin Tasly Sants Pharmaceutical Co., Ltd., priority 2023, dated 2024)

test system: Col1a1-Luci-reporter luciferase in LX-2 cells; experiment: HSCs activation model based on Col1a1-Luci-reporter luciferase in transfected LX-2 cells (Duo-Lite luciferase assay; CI by CompuSyn); assay type: cell-based, human; conditions: 10 µM, 20 µM, 50 µM, 12 hours
Protocol: LX-2 cells were inoculated into 96-well plates and cultured to a suitable density. Then, Lipofectamine 3000 liposome transfection reagent was used to prepare transfection system. Each well was transfected with 0.1 µg plasmid, of which the Empty vector group was transfected with pEZX-FR03-hygro empty plasmid, and the Control group and other administration groups were transfected with pEZX-FR03-hygro-COL1A1-WT plasmid.
The LX-2 cell line was transfected with plasmid for 6 hours, and then the drug-containing serum-free medium containing 2.5 mM, 5 mM, and 10 mM anti-fibrosis agent Pirfenidone was replaced according to groups for incubation for 12 hours, and then tested by the Duo-LitTM Luciferase Assay System kit.
The cell culture plate to be tested was taken out into the incubator, and left at room temperature for 30 min to allow the temperature of the culture plate to be balanced to room temperature. Firefly luciferase activity was detected. The original culture medium was discarded, and added with 75 µl PBS, then added with Duo-Lite Luciferase detection reagent with the same volume as PBS, and was mixed evenly. The system was left at room temperature for 10 min to detect firefly luciferase luminescence.
(§1) The LX-2 cell line was transfected with plasmid for 6 hours, and then the drug-containing serum-free medium containing 10 µM, 20 µM, 50 µM Silybin was replaced according to groups for incubation for 12 hours, and then tested by the Duo-LitTM Luciferase Assay System kit.
as §1, with “µM silybin, 10 µM drug to be screened,” for “µM,”, “20” for “20 µM, 50”, “silybin, 20 µM drug to be screened at a mixed ratio of 1:1” for “Silybin”
Cell activation inhibition rate% = (Control Group Firefly- Administration Group Firefly)/ Control Group Firefly ×100%. The CI value was obtained by analysis using micro-use CompuSyn software. […]

Question: With COc1cc(C2Oc3cc([C@H]4Oc5cc(O)cc(O)c5C(=O)[C@@H]4O)ccc3OC2CO)ccc1O (stereo partly shown) [silybin] as the molecule, how does the “inhibitory effect on activation of stellate cells in vitro” value read?
Answer: The value was “no significant inhibitory effect”.

same assay, conditions: 5 mM and 10 mM, 12 hours, clear dose-dependence

Question: For Cc1ccc(=O)n(-c2ccccc2)c1 [Pirfenidone], which “expression level of luciferase” value is on record?
Answer: Its value is “significantly decreased”.

same assay, conditions: named drug combined with silybin, mixed ratio 1:1, 12 hours, CI<0.90 synergistic, 0.90<CI<1.10 additive

Question: Which CI does the source give for CCOC(=O)C1=C(COCCN)NC(C)=C(C(=O)OC)C1c1ccccc1Cl (stereo not shown) [amlodipine] here?
Answer: Its CI is 0.62.

Question: With CCCCC(=O)N(Cc1ccc(-c2ccccc2-c2nnn[nH]2)cc1)[C@H](C(=O)O)C(C)C [valsartan] as the molecule, how does the CI read?
Answer: Its CI is 0.47.

Question: Which CI does the source give for COc1ccccc1OCCNCC(O)COc1cccc2[nH]c3ccccc3c12 (stereo not shown) [carvedilol] here?
Answer: Its CI is 0.11.

Question: OC[C@@H](O)[C@@H](O)[C@H](O)[C@H](O)CO [D-mannitol] was tested. Which CI did it give?
Answer: Its CI is 0.66.

Question: For CCCC1O[C@@H]2C[C@H]3[C@@H]4CCC5=CC(=O)C=C[C@]5(C)[C@H]4[C@@H](O)C[C@]3(C)[C@]2(C(=O)CO)O1 (stereo partly shown) [budesonide], which CI is on record?
Answer: Its CI is 0.91.

Question: How did the CI turn out when COC(=O)C1=C(C)NC(C)=C(C(=O)OCCN2CCN(C(c3ccccc3)c3ccccc3)CC2)C1c1cccc([N+](=O)[O-])c1 (stereo not shown) [manidipine] was run?
Answer: The CI was 0.54.

Question: With CCOc1ccccc1OCCN[C@H](C)Cc1ccc(OC)c(S(N)(=O)=O)c1 [tamsulosin] as the molecule, how does the CI read?
Answer: The CI was 0.50.

Question: How did the CI turn out when COC(=O)C1=C(C)NC(C)=C(C(=O)OCCN(C)Cc2ccccc2)C1c1cccc([N+](=O)[O-])c1 (stereo not shown) [nicardipine] was run?
Answer: The CI was 0.31.

Question: How did the CI turn out when CCC(=O)O[C@]1(C(=O)CCl)[C@@H](C)C[C@H]2[C@@H]3CCC4=CC(=O)C=C[C@]4(C)[C@@]3(F)[C@@H](O)C[C@@]21C [clobetasol propionate] was run?
Answer: The CI was 0.86.

Question: How did the CI turn out when COCCOC(=O)C1=C(C)NC(C)=C(C(=O)OC/C=C/c2ccccc2)C1c1cccc([N+](=O)[O-])c1 (stereo not shown) [cilnidipine] was run?
Answer: Its CI is 0.79.

Question: Which CI does the source give for O=C(O)COC(=O)Cc1ccccc1Nc1c(Cl)cccc1Cl [aceclofenac] here?
Answer: The CI was 0.46.
